Assay results published in ChEMBL document CHEMBL1201862, “PubChem BioAssay data set” (2004).
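Briefly, cells in 96-well plates were exposed to five compound concentrations for 48 h, and endpoints were estimated by linear interpolation. The concentration for 50% growth inhibition is given as GI50.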 Active and inactive are the calls of the source. Cut-off read from the data, not from the text of the source: active = GI50 up to about 1.1 µM and inactive = higher. *1 amine or outer side, *2 acyl side, *3 side chain or, on linkers, in order; H or OH if unused. Where a SMILES comes first, the peptide text is derived from it. [ ]: non-standard residue; d: D form. The star is where a group is joined. X31 = CC(=O)N(C)SCC(N[*:1])C(=O)[*:2]; Fmoc = O=C(OCC1c2ccccc2-c2ccccc21)*; For = O=C*

Tests used:
Experiment in all cases: growth of human tumour cells (NCI), 48 h
SK-MEL-28 = tested on: SK-MEL-28
A549 = tested on: A549
SK-OV-3 = tested on: SK-OV-3
OVCAR-4 = tested on: OVCAR-4
SK-MEL-2 = tested on: SK-MEL-2
MCF7 = tested on: MCF7
CAKI-1 = tested on: CAKI-1
BT-549 = tested on: BT-549
DU-145 = tested on: DU-145
SF-295 = tested on: SF-295
HCC 2998 = tested on: HCC 2998
NCI/ADR-RES = tested on: NCI/ADR-RES
KM12 = tested on: KM12
SNB-19 = tested on: SNB-19
Malme-3M = tested on: Malme-3M
NCI-H23 = tested on: NCI-H23
SF-539 = tested on: SF-539
IGROV-1 = tested on: IGROV-1
RPMI-8226 = tested on: RPMI-8226

Measured: GI50

Cc1[nH]n(-c2ccccc2)c(=O)c1C(N(CCc1ccccc1)C1=NCC(C)S1)(C(F)(F)F)C(F)(F)F (stereo not given)
inactive: SK-MEL-28 16.4 µM | A549 15.1 µM | SK-OV-3 25.4 µM | OVCAR-4 10.8 µM | SK-MEL-2 8.51 µM | MCF7 10.7 µM | CAKI-1 13.5 µM | BT-549 10.4 µM | DU-145 27.2 µM | SF-295 9.02 µM | HCC 2998 13.4 µM | NCI/ADR-RES 18.9 µM | KM12 13.1 µM | SNB-19 15.5 µM | Malme-3M 11.1 µM | NCI-H23 5.16 µM | SF-539 16.7 µM

COc1ccccc1NC1=NCC(C)S1 (stereo not given)
inactive: SK-MEL-28 > 100 µM | A549 > 100 µM | SK-OV-3 > 100 µM | SK-MEL-2 > 100 µM | MCF7 > 100 µM | CAKI-1 > 100 µM | BT-549 > 100 µM | DU-145 > 100 µM | SF-295 > 100 µM | HCC 2998 > 100 µM | IGROV-1 > 100 µM | RPMI-8226 > 100 µM | NCI/ADR-RES > 100 µM | KM12 > 100 µM | SNB-19 > 100 µM | Malme-3M > 100 µM | NCI-H23 > 100 µM | SF-539 > 100 µM

OC1(c2ccc(Cl)cc2)c2ccccc2-c2nc3ccccc3n21 (stereo not given)
inactive: SK-MEL-28 > 100 µM | A549 52.7 µM | SK-OV-3 49 µM | OVCAR-4 > 100 µM | SK-MEL-2 39.3 µM | MCF7 95.3 µM | CAKI-1 > 100 µM | BT-549 > 100 µM | DU-145 79.4 µM | SF-295 97.9 µM | HCC 2998 74 µM | IGROV-1 73.5 µM | RPMI-8226 49.3 µM | NCI/ADR-RES 67.1 µM | KM12 > 100 µM | SNB-19 51.6 µM | NCI-H23 89.3 µM | SF-539 > 100 µM

COc1cc2oc(-c3ccc4c(c3)OCO4)c(OC)c(=O)c2c(O)c1OC
inactive: SK-MEL-28 > 50 µM | A549 > 50 µM | SK-OV-3 > 50 µM | OVCAR-4 > 50 µM | SK-MEL-2 > 50 µM | MCF7 > 50 µM | CAKI-1 > 50 µM | BT-549 34.9 µM | DU-145 > 50 µM | SF-295 43.8 µM | HCC 2998 > 50 µM | IGROV-1 > 50 µM | NCI/ADR-RES > 50 µM | KM12 > 50 µM | SNB-19 > 50 µM | Malme-3M > 50 µM | NCI-H23 35.6 µM | SF-539 > 50 µM

Cc1nc2cc3ccccc3cc2[nH]c1=O
inactive: SK-MEL-28 > 100 µM | A549 > 100 µM | SK-OV-3 > 100 µM | OVCAR-4 51.1 µM | SK-MEL-2 > 100 µM | MCF7 30.2 µM | CAKI-1 38.1 µM | BT-549 > 100 µM | DU-145 > 100 µM | SF-295 91.2 µM | HCC 2998 > 100 µM | IGROV-1 47.9 µM | NCI/ADR-RES 77.3 µM | KM12 85.1 µM | SNB-19 92.3 µM | Malme-3M > 100 µM | NCI-H23 89.5 µM | SF-539 53.2 µM

O=C1NC(NCc2ccc(F)cc2)=N/C1=C\c1ccccc1Cl
inactive: SK-MEL-28 23.6 µM | A549 17.2 µM | SK-OV-3 26.3 µM | OVCAR-4 23.9 µM | SK-MEL-2 15.8 µM | MCF7 19.6 µM | CAKI-1 23.9 µM | BT-549 23.7 µM | DU-145 19.9 µM | SF-295 17.1 µM | HCC 2998 26.3 µM | IGROV-1 19.2 µM | NCI/ADR-RES 20.1 µM | KM12 18.1 µM | SNB-19 19.8 µM | Malme-3M 16.8 µM | SF-539 32.1 µM

Cc1nn(-c2ccccc2)c2c1N=C(C(=O)O)CC(c1ccccc1)=N2
inactive: SK-MEL-28 > 10 µM | A549 > 10 µM | SK-OV-3 > 10 µM | OVCAR-4 > 10 µM | MCF7 > 10 µM | CAKI-1 > 10 µM | BT-549 > 10 µM | DU-145 > 10 µM | SF-295 > 10 µM | HCC 2998 > 10 µM | IGROV-1 > 10 µM | RPMI-8226 > 10 µM | NCI/ADR-RES > 10 µM | KM12 > 10 µM | SNB-19 > 10 µM | Malme-3M > 10 µM | NCI-H23 > 10 µM | SF-539 > 10 µM

c1cc2cc(c1)CN1CCNCCN(CCNCC1)Cc1cccc(c1)CN1CCNCCN(CCNCC1)C2
inactive: SK-MEL-28 > 100 µM | A549 > 100 µM | SK-OV-3 > 100 µM | OVCAR-4 > 100 µM | SK-MEL-2 > 100 µM | MCF7 > 100 µM | BT-549 > 100 µM | DU-145 > 100 µM | SF-295 > 100 µM | HCC 2998 > 100 µM | IGROV-1 > 100 µM | RPMI-8226 > 100 µM | NCI/ADR-RES > 100 µM | KM12 > 100 µM | SNB-19 > 100 µM | Malme-3M > 100 µM | NCI-H23 > 100 µM | SF-539 > 100 µM

Cn1c(=O)n(-c2c3ccccc3c(Cl)c3ccccc23)n(C(C)(C)C)c1=O
inactive: SK-MEL-28 > 100 µM | A549 > 100 µM | SK-OV-3 > 100 µM | SK-MEL-2 > 100 µM | MCF7 > 100 µM | CAKI-1 > 100 µM | BT-549 > 100 µM | DU-145 > 100 µM | SF-295 > 100 µM | HCC 2998 > 100 µM | IGROV-1 > 100 µM | NCI/ADR-RES > 100 µM | KM12 > 100 µM | SNB-19 > 100 µM | Malme-3M > 100 µM | NCI-H23 > 100 µM | SF-539 43.6 µM

CC(=O)N(C)SCC(NC(=O)C(Cc1ccccc1)NC(=O)OCC1c2ccccc2-c2ccccc21)C(=O)NC(Cc1ccccc1)C(=O)NC(Cc1cn(C=O)c2ccccc12)C(=O)NC(CCCCNC(=O)OCC1c2ccccc2-c2ccccc21)C(=O)NC(C(=O)NC(CSN(C)C(C)=O)C(=O)NC(C(N)=O)C(C)O)C(C)O (stereo not given) (Fmoc-F[X31]FW(For)K(Fmoc)T[X31]T-NH2; configuration not given here)
inactive: SK-MEL-28 > 100 µM | A549 > 100 µM | SK-OV-3 37.2 µM | OVCAR-4 > 100 µM | SK-MEL-2 40.6 µM | MCF7 47.4 µM | BT-549 > 100 µM | DU-145 > 100 µM | SF-295 89.5 µM | HCC 2998 > 100 µM | IGROV-1 66.4 µM | RPMI-8226 > 100 µM | NCI/ADR-RES > 100 µM | KM12 19.8 µM | SNB-19 75.5 µM | Malme-3M > 100 µM | NCI-H23 20.8 µM | SF-539 > 100 µM

CCC(C#N)NCc1ccc(CNC(C#N)CC)cc1 (stereo not given)
inactive: SK-MEL-28 > 100 µM | A549 > 100 µM | SK-OV-3 > 100 µM | OVCAR-4 > 100 µM | SK-MEL-2 > 100 µM | MCF7 > 100 µM | CAKI-1 > 100 µM | BT-549 > 100 µM | DU-145 > 100 µM | SF-295 > 100 µM | HCC 2998 > 100 µM | IGROV-1 > 100 µM | NCI/ADR-RES > 100 µM | KM12 > 100 µM | SNB-19 > 100 µM | Malme-3M > 100 µM | NCI-H23 > 100 µM | SF-539 > 100 µM

C=C1C(=O)OC2C1CC(O)/C(C)=C\CCC1(C)OC21 (stereo not given)
inactive: SK-MEL-28 33.3 µM | A549 35.5 µM | SK-OV-3 49.9 µM | OVCAR-4 25.6 µM | SK-MEL-2 17.5 µM | MCF7 28.2 µM | BT-549 23 µM | DU-145 32.8 µM | SF-295 30.3 µM | HCC 2998 35.1 µM | IGROV-1 32.5 µM | RPMI-8226 21.4 µM | NCI/ADR-RES 22.7 µM | KM12 32.9 µM | SNB-19 48.1 µM | Malme-3M 19.2 µM | NCI-H23 31.3 µM | SF-539 34.2 µM

N#Cc1nsnc1-c1nc(-c2nsnc2C#N)nc(-c2nsnc2C#N)n1
inactive: SK-MEL-28 > 100 µM | OVCAR-4 > 100 µM | SK-MEL-2 > 100 µM | MCF7 > 100 µM | CAKI-1 > 100 µM | BT-549 > 100 µM | DU-145 > 100 µM | SF-295 > 100 µM | HCC 2998 > 100 µM | IGROV-1 > 100 µM | RPMI-8226 > 100 µM | NCI/ADR-RES > 100 µM | KM12 96.2 µM | SNB-19 > 100 µM | Malme-3M > 100 µM | NCI-H23 > 100 µM | SF-539 > 100 µM

CCOc1ccccc1/N=C\c1c2ccccc2cc2ccccc12
inactive: SK-MEL-28 26.2 µM | A549 26.4 µM | SK-OV-3 22.3 µM | OVCAR-4 24.3 µM | SK-MEL-2 22.1 µM | MCF7 29.4 µM | CAKI-1 24.2 µM | BT-549 28.2 µM | DU-145 22.1 µM | SF-295 30 µM | HCC 2998 18.5 µM | IGROV-1 22.8 µM | RPMI-8226 15.5 µM | NCI/ADR-RES 23.1 µM | KM12 15.1 µM | SNB-19 26.4 µM | NCI-H23 17.3 µM | SF-539 23.8 µM

Nc1ccc(Oc2ccc(C3(c4ccc(Oc5ccc(N)c(O)c5)cc4)C4CC5C6CC7CC5C3C(C7)C6C4)cc2)cc1O
inactive: A549 1.56 µM | OVCAR-4 2.35 µM | SK-MEL-2 2.36 µM | MCF7 1.69 µM | CAKI-1 2.49 µM | BT-549 4.15 µM | DU-145 1.86 µM | SF-295 2.77 µM | HCC 2998 1.85 µM | IGROV-1 2.2 µM | RPMI-8226 1.63 µM | NCI/ADR-RES 5.62 µM | KM12 1.86 µM | SNB-19 3.3 µM | Malme-3M 3.23 µM | NCI-H23 2.47 µM | SF-539 2.61 µM
